Experiments:
[1] = Oil spreading time on human inner forearm (spreadability factor S^R); format: physicochemical; details: 4 μL oil, 12 mm×8 mm ellipse on inner forearm; for Relative Spreading Time (spreadability factor S^R): normalized to oleyl oleate, data of present work; for spreading time: two panelists in duplicate
Procedure: As for oil “spreadability factor”, S^R, a semi-quantitative assay was developed by applicants to determine the spreading time for the different oils that have the potential to be used in microemulsions. First, an elliptic shape with 12 mm×8 mm diameters was marked on the inner forearm of a panelist. Because of the textural orientation of the skin, the spreading trace is usually in an elliptic shape. […] According to the test, 4 μL of the tested oil was dosed in the center of the area. The time when the oil arrived at the marked outline was recorded as the spreading time of the oil. The data were obtained on two panelists with duplicate tests for each oil. The average values were taken as the results. The spreading time of oleyl oleate was than used to normalize the measured values. For example, the spreading time for oleyl oleate is 1.3+0.03 minutes for IPM so the relative spreading time for IPM is 0.5/1.3=0.4. Thus, the spreadability factor, S^R, is ratio of spread rate of selected oil (measured in minutes) to spread rate of oleyl oleate (also measured in minutes).
Using this test, examples of oil spreading times are noted below: […]

[2] = Viscosity, ARES Rheometer, strain controlled mode; format: physicochemical; details: 20-23° C.
Description: The ARES Rheometer manufactured by Rheometric Scientific™ was used for measuring viscosities in strain controlled mode. Fluid behavior of the microemulsions is different from conventional skin cleansers. They are Newtonian liquids, so the viscosity is constant with varying shear rate or time. […] As noted, the viscosities of the two microemulsions are much lower than for the competitors' liquid cleansers. However, low viscosity may ease penetration into crevices. Make-up removal efficacy may be directly related to product viscosity, i.e., an increased viscosity of a product caused a reduction in make-up removal. […] Pond's Clear Solutions® Deep Pore Foaming cleanser has an even lower viscosity than the microemulsions. It is packaged in a bottle with aeration upon dispensing, providing a thick and creamy foam. Microemulsions can be used as a cleansing milk or impregnated onto a non-woven.
To simulate the effect of sebum dissolution in washing process on the viscosity of the microemulsion, 2% model sebum was dissolved in microemulsion #1. From the results, one can expect that the good properties of the microemulsion, i.e., solvency and low viscosity, will be maintained during the washing process.

[3] = Cognis spreading area over fixed time, converted using oleyl oleate as control; cited from earlier work

Compound | Relative Spreading Time (spreadability factor S^R) [1] | Relative Spreading Time [3] | further results
CCCCCCCCCCCCCCCC(=O)OC(C)C [Isopropanol Palmitate] | 0.7 |  | 
O [Water] |  |  | Viscosity at Shear Rate 10 s^−1 [2]: 1 mPa-s
CC(C)=CCC/C(C)=C/CC/C(C)=C/CC/C=C(\C)CC/C=C(\C)CCC=C(C)C [Squalene] | 0.8 |  | 
CCCCCCCC/C=C\CCCCCCCCOC(=O)CCCCCCC/C=C\CCCCCCCC [Oleyl Oleate, reference compound] | 1 | 1 | spreading time [1]: 1.3 ± 0.03 min
CC(C)CCCC(C)CCCC(C)CCCCC(C)CCCC(C)CCCC(C)C (centres unmarked) [Squalane] | 1.0 |  | 
CCCCCCCC(=O)OCC(COC(=O)CCCCCCC)OC(=O)CCCCCCC [Glycerol Tricaprylate] | 0.9 |  | 
CCCCCCCCOCCCCCCCC [Cetiol ® OE: Di-N-Octyl Ether, Di-N-Octyl Ether] | 0.2 |  | 
CCCCCCCCCCCCCC(=O)OC(C)C [Isopropanol Myristrate] | 0.4 | 0.4 | spreading time [1]: 0.5 min
Dioctyl Cyclohexane |  | 0.5 | 
CCCCCCCC/C=C\CCCCCCCCCCCC(=O)OCCCCCCCC/C=C\CCCCCCCC [Oleyl Eructate] |  | 1.2 | 
CCCCCCCCCCC(CO)CCCCCCCC (centres unmarked) [Octyl Dodecanol] |  | 0.7 | 
Pentahydrosqualene | 2.5 |  | 
CCCCCCCC/C=C\CCCCCCCCO [Oleyl Alcohol] |  | 0.6 | 

Source: US20030095990A1, “Microemulsion facial washes comprising specific oils” (Unilever Home & Personal Care USA, Division of Conopco, Inc., priority 2001, published 2003)
